ChEMBL document CHEMBL1201862, “PubChem BioAssay data set” (2004)
The source made the active and inactive calls.

Tests used:
[1] = luciferase reporter signal suppression in cells – H4 neuroglioma cells, luminescence, dose response (AID 1990); format: functional, cell-based
[2] = luciferase reporter signal reduction – luminescence, H4-C neuroglioblastoma cells, dose response (AID 2458); format: functional, cell-based;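 note: H4 neuroglioblastoma cells stably carrying a luciferase reporter gene fusion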
cells = format: functional, cell-based
[3] = Luminescence Cell-Based Dose Response HTS to Identify Inhibitors of 5'UTR Stem-Loop Driven Prion Protein mRNA Translation in H4 Neuroglioblastoma Cells. [Related pubchem assays: 1827 (Project Summary), 1813 (Primary HTS)]; format: functional
[4] = alpha-synuclein stem-loop luciferase translation blockers – H4 neuroglioma cells, luminescence, confirmation (AID 1988); format: functional, cell-based
[5] = Luminescence-based counterscreen assay for KLF5 inhibitors: dose response cell-based high throughput screening assay to identify cytotoxic compounds using the IEC-6 intestinal epithelial cell line. [Related pubchem assays: 1700 (Primary screen.), 1834 (Confirmation screen.), 1858 (Summary AID.), 1905 (Counterscreen.)]; format: functional
[6] = alpha-synuclein stem-loop translation blockers – luminescence, H4 neuroglioblastoma cells, dose confirmation, confirmation (AID 2454); format: functional, cell-based;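 note: H4 neuroglioblastoma cells carrying an alpha-synuclein 5'UTR luciferase reporter; potency for inhibition of the luciferase signal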
Jurkat = experiment: blockers of NF-kB activation in T cells – Jurkat, luciferase reporter, luminescence, B- and T-cell, dose response (AID 489004); format: functional, cell-based; conditions: Homo sapiens;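 note: NF-kB luciferase reporter Jurkat cells stimulated with PMA plus ionomycin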
[7] = HEK-293T viability loss, compound-treated – cell-based, uHTS hits, cytotoxicity control for B/T-cell NF-kB inhibitor project, dose response (AID 489019); format: functional;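 note: IC50 reflects cytotoxicity as loss of cell viability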
[8] = blockers of HIV-1 envelope-mediated cell-cell fusion – cherry-pick, dose response (AID 652057); format: functional, cell-based
[9] = blockers of HIV-1 ZM109 envelope-driven cell-cell fusion – HeLa effector, CEM target cells, luciferase, cherry-pick, dose response (AID 652058); format: functional, cell-based;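 note: luciferase signal from HIV-1 Env mediated cell-cell fusion of effector and target cells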
Paired box protein Pax-8 = Paired box protein Pax-8 (Homo sapiens, UniProt Q06710); experiment: PAX8 transcriptional activity inhibition in RMG-I – RMG-I cells, luciferase, cherry-pick, dose response (AID 687027); format: functional, cell-based;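 note: luciferase reporter driven by Pax8 target thyroperoxidase promoter measured by SteadyGlo luminescence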
Paired box protein Pax-8, sequence (Q06710 whole entry, the tested form may be a part): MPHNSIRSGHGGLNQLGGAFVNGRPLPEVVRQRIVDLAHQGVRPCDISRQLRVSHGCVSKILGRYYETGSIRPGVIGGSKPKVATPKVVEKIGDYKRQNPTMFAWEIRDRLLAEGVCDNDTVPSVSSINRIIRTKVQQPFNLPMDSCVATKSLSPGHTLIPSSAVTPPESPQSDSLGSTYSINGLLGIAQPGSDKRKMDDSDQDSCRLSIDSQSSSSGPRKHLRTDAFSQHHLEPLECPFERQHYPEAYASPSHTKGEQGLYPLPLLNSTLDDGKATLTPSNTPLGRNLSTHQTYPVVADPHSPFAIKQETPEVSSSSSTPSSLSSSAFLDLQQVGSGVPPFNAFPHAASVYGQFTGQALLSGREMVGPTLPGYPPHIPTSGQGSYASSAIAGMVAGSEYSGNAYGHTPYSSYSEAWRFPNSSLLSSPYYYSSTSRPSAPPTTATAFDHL

[10] = off-target signal loss in HeLa-CEM21 co-culture – HeLa F-luc CTL cells, cherry-picked, counter-screen for HIV-1 Env fusion inhibitor project, dose response (AID 652040); format: functional, cell-based;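 note: potency for signal decrease marking cytotoxic or nonspecific inhibition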
[11] = HIV-1 AD8 envelope cell-cell fusion blockers – cherry-pick, dose response (AID 652062); format: functional, cell-based;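 note: luciferase signal from cell-cell fusion driven by HIV-1 clade B AD8 Env; potency is for inhibitors of fusion seen as a drop in luminescence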
[12] = target: Dual specificity protein phosphatase 3 (Homo sapiens, UniProt P51452); experiment: inhibition constants for human DUSP3 – biochemical, colorimetric, SAR follow-up (AID 2004)
Dual specificity protein phosphatase 3, sequence (P51452 whole entry): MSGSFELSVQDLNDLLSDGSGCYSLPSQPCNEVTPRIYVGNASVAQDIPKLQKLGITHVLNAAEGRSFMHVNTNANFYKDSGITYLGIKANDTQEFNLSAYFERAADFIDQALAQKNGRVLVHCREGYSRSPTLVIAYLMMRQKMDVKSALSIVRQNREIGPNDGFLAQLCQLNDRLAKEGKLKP

[13] = target: Luciferin 4-monooxygenase (Photinus pyralis, UniProt P08659); experiment: Counter Screen for Luciferase-based Assay Positives. [Related pubchem assays: 620, 618, 411 ]
Luciferin 4-monooxygenase, sequence (P08659 whole entry): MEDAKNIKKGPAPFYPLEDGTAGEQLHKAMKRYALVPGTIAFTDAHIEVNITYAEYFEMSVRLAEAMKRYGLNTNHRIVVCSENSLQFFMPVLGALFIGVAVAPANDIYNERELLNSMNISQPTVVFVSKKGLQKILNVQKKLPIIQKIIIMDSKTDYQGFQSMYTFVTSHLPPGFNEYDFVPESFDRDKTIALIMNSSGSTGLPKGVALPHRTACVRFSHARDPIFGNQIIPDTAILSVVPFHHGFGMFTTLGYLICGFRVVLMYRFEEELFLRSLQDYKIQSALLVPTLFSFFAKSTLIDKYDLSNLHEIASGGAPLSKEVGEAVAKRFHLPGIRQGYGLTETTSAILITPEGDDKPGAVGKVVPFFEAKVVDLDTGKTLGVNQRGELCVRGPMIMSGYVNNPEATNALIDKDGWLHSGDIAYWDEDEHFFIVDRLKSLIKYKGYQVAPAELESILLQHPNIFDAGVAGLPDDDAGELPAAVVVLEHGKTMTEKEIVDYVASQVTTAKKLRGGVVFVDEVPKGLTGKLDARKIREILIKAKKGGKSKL

HT-1080 = experiment: HT1080 cell viability loss – fluorescence readout (AID 620); format: functional, cell-based; conditions: Homo sapiens
HEK293 = experiment: EBV LMP1 TES2 canonical NF-kB signalling blockers – cell-based, HEK293, luciferase, cherry-pick, dose response (AID 588343); format: functional; conditions: Homo sapiens
[14] = target: Acyl-homoserine lactone acylase PvdQ (Pseudomonas aeruginosa (strain LESB58), UniProt Q9I194); experiment: PvdQ acylase enzyme activity blockers – biochemical, fluorescence, plate reader and imaging, cherry-picks, dose response (AID 493231)
Acyl-homoserine lactone acylase PvdQ, sequence (Q9I194 24-193 limits assumed): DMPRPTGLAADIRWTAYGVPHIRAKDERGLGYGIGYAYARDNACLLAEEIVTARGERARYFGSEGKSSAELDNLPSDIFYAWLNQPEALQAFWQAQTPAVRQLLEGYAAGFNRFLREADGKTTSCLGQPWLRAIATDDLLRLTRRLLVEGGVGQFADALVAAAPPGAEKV
Acyl-homoserine lactone acylase PvdQ, sequence (Q9I194 217-762 limits assumed): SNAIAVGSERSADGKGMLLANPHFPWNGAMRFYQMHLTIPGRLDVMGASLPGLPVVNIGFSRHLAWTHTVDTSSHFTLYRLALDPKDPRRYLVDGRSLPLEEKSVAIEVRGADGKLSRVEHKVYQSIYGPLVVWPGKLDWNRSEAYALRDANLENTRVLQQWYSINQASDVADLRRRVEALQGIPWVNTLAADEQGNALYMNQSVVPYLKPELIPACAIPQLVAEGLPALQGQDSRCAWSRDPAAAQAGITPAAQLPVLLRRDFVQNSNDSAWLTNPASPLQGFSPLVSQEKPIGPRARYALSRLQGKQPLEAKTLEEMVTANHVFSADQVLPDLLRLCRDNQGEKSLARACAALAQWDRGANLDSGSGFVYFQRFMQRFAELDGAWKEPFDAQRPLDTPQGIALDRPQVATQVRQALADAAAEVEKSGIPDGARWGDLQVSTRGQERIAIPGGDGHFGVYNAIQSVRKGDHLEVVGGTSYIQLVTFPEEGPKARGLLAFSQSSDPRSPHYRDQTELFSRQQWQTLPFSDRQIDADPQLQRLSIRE

Vero [15] = experiment: Vero 76 cell viability after compound exposure – Vero 76 cells, synthesized analogs, cytotoxicity control for West Nile virus antiviral project, SAR follow-up (AID 2414); format: functional; conditions: Chlorocebus sabaeus
Vero [16] = experiment: Vero cell viability after compound exposure – synthesized analogs, set II, cytotoxicity control for West Nile virus antiviral project, SAR follow-up (AID 2402); format: functional; conditions: Chlorocebus sabaeus
Vero [17] = experiment: host cell viability loss, Vero E6 – synthesized analogs, cytotoxicity control for West Nile virus antiviral project, SAR follow-up (AID 2244); format: functional; conditions: Chlorocebus sabaeus
[18] = A Cell Based Assay for the Identification of Probe candidate Compounds with Anti- Venezuelan Equine Encephalitis virus. [Related pubchem assays: 2409, 2419, 1621, 2238, 2405, 2024, 2065, 2402, 2414, 1635, 1650, 2244 ]; format: functional
[19] = HEK-293T cell viability reduction – luminescence, B-cell screen hits, cytotoxicity control for BCR NF-kB inhibitor project, dose response (AID 489021); format: functional, cell-based;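 note: HEK-293T cells carrying an NF-kB luciferase reporter; cells exposed to compound for about 14 hours before viability readout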
[20] = target: T1, Sentrin-specific protease 1 (Homo sapiens, UniProt Q9P0U3); experiment: SENP1 catalytic domain blockers, concentration series – biochemical, kinetic FRET, dose response (AID 651697); format: functional; conditions: read-out: IC50_Mean
T1 sequence (Q9P0U3 whole entry): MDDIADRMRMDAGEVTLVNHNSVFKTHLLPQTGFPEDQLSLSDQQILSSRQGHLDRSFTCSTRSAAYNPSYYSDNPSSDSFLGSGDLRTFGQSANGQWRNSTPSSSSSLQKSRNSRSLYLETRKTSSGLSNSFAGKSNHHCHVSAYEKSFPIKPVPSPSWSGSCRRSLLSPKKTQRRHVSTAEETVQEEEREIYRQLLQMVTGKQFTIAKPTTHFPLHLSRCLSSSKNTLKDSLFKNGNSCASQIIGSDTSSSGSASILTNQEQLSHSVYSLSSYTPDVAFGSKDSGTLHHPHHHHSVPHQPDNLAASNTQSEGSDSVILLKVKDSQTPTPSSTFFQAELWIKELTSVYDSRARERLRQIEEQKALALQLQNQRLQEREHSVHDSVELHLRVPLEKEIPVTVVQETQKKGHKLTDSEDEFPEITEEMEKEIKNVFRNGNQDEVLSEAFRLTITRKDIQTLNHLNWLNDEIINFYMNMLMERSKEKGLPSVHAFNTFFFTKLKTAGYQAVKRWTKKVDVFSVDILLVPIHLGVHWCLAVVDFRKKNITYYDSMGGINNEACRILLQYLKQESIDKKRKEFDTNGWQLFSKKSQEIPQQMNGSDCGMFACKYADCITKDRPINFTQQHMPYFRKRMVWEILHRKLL

[21] = target: T1, Sentrin-specific protease 1; experiment: Dose response confirmation of small molecule inhibitors of the catalytic domain of the SUMO protease, SENP1 in a FRET assay.; format: functional; conditions: read-out: IC50_Mean
Cytochrome P450 3A4 = Cytochrome P450 3A4 (Homo sapiens, UniProt P08684); conditions: Potency;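 note: confirmatory qHTS run detecting inhibitors and substrates of CYP3A4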
Cytochrome P450 3A4, sequence (P08684 whole entry): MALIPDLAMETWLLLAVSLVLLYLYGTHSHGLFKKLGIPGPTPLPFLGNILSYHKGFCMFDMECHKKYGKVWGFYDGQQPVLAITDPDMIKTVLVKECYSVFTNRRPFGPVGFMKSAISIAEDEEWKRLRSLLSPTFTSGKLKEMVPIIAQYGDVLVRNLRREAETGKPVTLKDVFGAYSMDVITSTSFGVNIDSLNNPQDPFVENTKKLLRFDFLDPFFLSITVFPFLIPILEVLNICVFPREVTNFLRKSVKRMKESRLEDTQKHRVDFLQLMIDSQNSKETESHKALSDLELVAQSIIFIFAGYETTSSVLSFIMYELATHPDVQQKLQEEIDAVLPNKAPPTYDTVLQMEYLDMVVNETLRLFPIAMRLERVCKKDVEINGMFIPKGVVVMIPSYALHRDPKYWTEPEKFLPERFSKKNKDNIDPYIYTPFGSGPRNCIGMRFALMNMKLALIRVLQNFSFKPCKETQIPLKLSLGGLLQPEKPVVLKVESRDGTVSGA

Cytochrome P450 2C9 = Cytochrome P450 2C9 (Homo sapiens, UniProt P11712); conditions: Potency
Cytochrome P450 2C9, sequence (P11712 whole entry): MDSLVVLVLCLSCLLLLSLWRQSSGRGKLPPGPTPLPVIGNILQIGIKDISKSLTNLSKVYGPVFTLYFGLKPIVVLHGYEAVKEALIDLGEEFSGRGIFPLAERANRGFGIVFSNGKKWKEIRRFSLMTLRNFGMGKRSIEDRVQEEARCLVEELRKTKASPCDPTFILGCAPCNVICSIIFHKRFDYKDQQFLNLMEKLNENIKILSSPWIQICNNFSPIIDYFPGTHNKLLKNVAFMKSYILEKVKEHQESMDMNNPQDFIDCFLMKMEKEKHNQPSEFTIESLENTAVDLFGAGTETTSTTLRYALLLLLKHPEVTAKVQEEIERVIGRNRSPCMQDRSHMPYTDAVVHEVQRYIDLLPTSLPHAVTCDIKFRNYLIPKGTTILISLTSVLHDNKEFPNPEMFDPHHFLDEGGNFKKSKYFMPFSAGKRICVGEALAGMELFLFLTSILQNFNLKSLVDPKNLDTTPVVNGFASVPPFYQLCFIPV

O=C(NCCc1ccccc1F)c1ccc2c(c1)OCCO2
EC50 [1]: 0.16 µM (active) | EC50 [2]: 0.258 µM (active) | EC50 (cells): 0.316 µM (active) | EC50 [3]: < 0.1 µM (active) | EC50 [4]: 0.113 µM (active) | IC50 [5]: > 39.8 µM (not active) | EC50 [6]: 0.151 µM (active) | IC50 (Jurkat): 0.77 µM (active) | IC50 [7]: > 80 µM (inactive) | AC50 [8]: 2.14 µM (active) | AC50 [9]: 8.11 µM (active) | AC50 (Paired box protein Pax-8): 2.18 µM (active) | AC50 [10]: 3.21 µM (active) | AC50 [11]: 1.25 µM (active)

CC(C)C1SC(N/N=C/c2ccc(O)cc2)=NC1=O (stereo not drawn)
Ki [12]: 36.1 µM (inactive)

Cc1ccc(C(=O)Nc2cccc(C(=O)O)c2)cc1S(=O)(=O)N1CCCCC1
EC50 [13]: < 0.2 µM (active) | EC50 (HT-1080): > 50 µM (not active) | AC50 (HEK293): 3.76 µM (active)

O=C(CSCc1ccco1)N1CCc2ccccc21
AC50 [14]: 1.9 µM (active)

COc1cccc(NC(=O)CSc2nc3ccccc3c(=O)n2-c2ccc(F)cc2)c1
CC50 (Vero [15]): > 66.6 µM (active) | CC50 (Vero [16]): > 100 µM (active) | CC50 (Vero [17]): > 40 µM (active) | IC50 [18]: 64.2 µM (active)

CCSc1ncc(Cl)c(C(=O)Nc2sc3c(c2C(=O)NCc2cccnc2)CCCC3)n1
IC50 [19]: > 80 µM (inactive) | IC50 [20]: 19.1 µM (active) | IC50 [21]: 5.97 µM (active)

O=c1c(O)c(-c2ccc(O)cc2)oc2ccc(O)cc12
AC50 (Cytochrome P450 3A4): 12.6 µM (inconclusive) | AC50 (Cytochrome P450 2C9): 10 µM (inconclusive)
